Experimental data taken from patent US12497395B2, “Small molecule bromodomain inhibitors and uses therof” (ConverGene, LLC, priority 2019, dated 2025).
Where two headings read alike, the source gives them in different places.

Tests used:
BRD2 (BD2) = BRD2 (BD2) (Homo sapiens, UniProt P25440); assay: BROMOscan competitive ligand binding assay, BRD2 (BD2)
BRD3 (BD1) = BRD3 (BD1) (Homo sapiens, UniProt Q15059); assay: BROMOscan competitive ligand binding assay, BRD3 (BD1)
BRDT (BD2) = BRDT (BD2) (Homo sapiens, UniProt Q58F21); assay: BROMOscan competitive ligand binding assay, BRDT (BD2)
BRD4 (BD1, 2) = BRD4 (BD1, 2) (Homo sapiens, UniProt O60885); assay: BROMOscan competitive ligand binding assay, BRD4 (BD1, 2)
MV4-11 cells = assay: MV4-11 cytotoxicity assay (CellTiter-Glo); assay type: cell-based; conditions: Homo sapiens, 72 hr incubation
Method: Cell lines: The MV4-11 cell line were obtained from American Type Culture Collection (ATCC, Manassas, VA, USA) and cultured in RPMI 1640 (Invitrogen 11879020) culture medium supplemented with 10% fetal bovine serum and 100 units/mL Penicillin, 100 μg/mL Streptomycin and maintained in a 37° C., 5% CO2/95% humidified air incubator.
Cytotoxicity Assay: MV4-11 cells were cultured as described above, and plated in 1536-well white solid tissue culture plates using a Multidrop Combi peristaltic dispenser (ThermoFisher, Waltham, MA) at a density of 500 cells/well in 5 μL of RPMI 1640 (Invitrogen 11879020) culture medium supplemented with 10% fetal bovine serum and 100 units/mL Penicillin, 100 μg/mL Streptomycin. A 1536-well pintool dispenser outfitted with 20 nL pins (Wako Automation, San Diego, CA) was used to transfer 23 nL of compound in DMSO to the 1536-well assay plates. After 72 hr incubation at 37° C., 2.5 μL of CellTiter-Glo (Promega) was dispensed into each well using a BioRAPTR FRD dispenser (Beckman Coulter, Brea, CA). Plates were incubated at room temperature for 10 minutes, transferred to a ViewLux microplate imager (Perkin Elmer, Waltham, MA) and the ATP-coupled luminescence was measured using a 1 second exposure.

[1] = target: T1, full-length recombinant human BRD4 (Homo sapiens, UniProt O60885); assay: AlphaScreen assay, full-length BRD4 with acetylated histone H4 peptide; assay type: binding; conditions: full-length BRD4, acetylated H4 peptide (1-21) ligand
T1 construct: His-tag (N); purchased Reaction Biology RD-21-153; host or cells: Sf9 insect cells
Method: AlphaScreen® assay, an […], was conducted by following manufacturer's protocol (PerkinElmer, Waltham, MA) at Reaction Biology (Malvern, PA) utilizing full-length recombinant human BRD4 corresponding to amino acid position 2-1362 (NCBI Reference Sequence: NM_058243) expressed in Sf9 insect cells with an N-terminal His-tag (Reaction Biology Catalog No. RD-21-153), and histone H4 peptide (1-21) containing acetylated lysine residues at positions 5, 8, 12 and 16 as the ligand. […] H4 ligand peptide was then added and the mixture was incubated for another 30 minutes at room temperature. Streptavidin-coated donor beads and Ni acceptor beads were then added, and the mixture was incubated for additional 60 minutes. Fluorescent measurements (Ex/Em=680/520-620 nm) were taken and the data were fitted to the Hill equation with variable slopes to obtain IC50 values.

BRDT (BD1) = BRDT (BD1) (Homo sapiens, UniProt Q58F21); assay: BROMOscan competitive ligand binding assay, BRDT (BD1)
BRD2 (BD1, 2) = BRD2 (BD1, 2) (Homo sapiens, UniProt P25440); assay: BROMOscan competitive ligand binding assay, BRD2 (BD1, 2)
P300 = target: T2, P300 (Homo sapiens, UniProt Q09472); assay: BROMOscan competitive ligand binding assay, P300
T2 sequence (Q09472 1049-1156 limits assumed): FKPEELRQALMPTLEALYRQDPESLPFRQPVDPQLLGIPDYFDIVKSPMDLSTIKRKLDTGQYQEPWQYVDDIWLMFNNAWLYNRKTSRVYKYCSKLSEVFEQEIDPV

BRD4 (BD2) = BRD4 (BD2) (Homo sapiens, UniProt O60885); assay: BROMOscan competitive ligand binding assay, BRD4 (BD2)
BRDT (BD1, 2) = BRDT (BD1, 2) (Homo sapiens, UniProt Q58F21); assay: BROMOscan competitive ligand binding assay, BRDT (BD1, 2)
BRD3 (BD2) = BRD3 (BD2) (Homo sapiens, UniProt Q15059); assay: BROMOscan competitive ligand binding assay, BRD3 (BD2)
BRD4 (BD1) = BRD4 (BD1) (Homo sapiens, UniProt O60885); assay: BROMOscan competitive ligand binding assay, BRD4 (BD1)
CBP = CBP (Homo sapiens, UniProt Q92793); assay: BROMOscan competitive ligand binding assay, CBP
BRD2 (BD1) = BRD2 (BD1) (Homo sapiens, UniProt P25440); assay: BROMOscan competitive ligand binding assay, BRD2 (BD1)
BRD3 (BD1, 2) = BRD3 (BD1, 2) (Homo sapiens, UniProt Q15059); assay: BROMOscan competitive ligand binding assay, BRD3 (BD1, 2)
[2] = tested on: acute myeloid leukemia cell line Kasumi-1; assay: Kasumi-1 cell viability assay (CellTiter-Blue); assay type: cell-based; conditions: Homo sapiens, read-out: Kasumi-1 IC50
Method: Cell viability assay: Cell viability assay was conducted to obtain G150, the compound concentration resulting in 50% growth inhibition, using an acute myeloid leukemia cell line Kasumi-1 (ATCC® CRL-2724™) (ATCC, Manassas, VA). Briefly, cells were seeded on a 96-well flat-bottom cell culture plate at the density of 30,000 cells per well (MV-4-11) or 10,000 cells per well (Kasumi-1) in RPMI supplemented with 10% fetal bovine serum and L-glutamine plus penicillin and streptomycin. Cells were maintained at 37° C. with 5% CO2 for 24 hours then exposed to a given compound at either 11 or 21 concentrations ranging from 0 μM to 20 μM in a 150 μL volume in the presence of 0.2% dimethyl sulfoxide, the solvent used in serial dilution of the compound. The exposure was maintained for approximately 72 hours and the cell viability was measured using CellTiter-Blue® (Promega, Madison, WI) according to manufacturer's instruction. GI50 values were calculated using a four-parameter dose-response model in Graph Pad Prism (La Jolla, CA).

[3] = Kasumi 1, approximately 72 hours exposure, CellTiter-Blue

CBP, sequence (Q92793 1085-1192 limits assumed): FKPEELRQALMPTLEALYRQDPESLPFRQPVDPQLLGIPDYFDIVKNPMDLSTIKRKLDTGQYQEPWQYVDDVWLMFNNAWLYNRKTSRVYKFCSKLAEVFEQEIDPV
BRD2 (BD1), sequence (P25440 74-180 limits assumed): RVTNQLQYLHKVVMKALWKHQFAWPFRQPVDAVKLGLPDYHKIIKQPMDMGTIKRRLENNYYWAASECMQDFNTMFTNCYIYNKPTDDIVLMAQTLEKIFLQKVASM
BRD3 (BD2), sequence (Q15059 306-415 limits assumed): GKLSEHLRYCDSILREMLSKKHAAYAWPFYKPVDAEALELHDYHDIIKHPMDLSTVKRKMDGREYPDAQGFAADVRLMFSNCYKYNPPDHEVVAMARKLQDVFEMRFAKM
BRD2 (BD1, 2), sequence (P25440 71-455 limits assumed): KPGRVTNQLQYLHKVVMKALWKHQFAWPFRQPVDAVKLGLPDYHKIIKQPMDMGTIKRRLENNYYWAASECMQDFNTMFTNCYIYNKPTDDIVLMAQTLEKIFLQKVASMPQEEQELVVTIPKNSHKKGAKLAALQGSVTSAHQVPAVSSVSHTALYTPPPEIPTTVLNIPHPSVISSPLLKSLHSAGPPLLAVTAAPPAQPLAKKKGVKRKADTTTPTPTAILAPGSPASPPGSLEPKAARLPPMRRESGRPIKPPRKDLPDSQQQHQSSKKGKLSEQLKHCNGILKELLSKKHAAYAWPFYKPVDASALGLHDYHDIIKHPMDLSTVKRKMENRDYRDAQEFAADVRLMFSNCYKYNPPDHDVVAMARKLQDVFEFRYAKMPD
BRD2 (BD2), sequence (P25440 344-453 limits assumed): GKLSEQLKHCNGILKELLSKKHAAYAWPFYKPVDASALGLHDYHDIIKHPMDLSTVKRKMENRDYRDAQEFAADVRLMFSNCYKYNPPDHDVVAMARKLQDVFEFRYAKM
BRD3 (BD1), sequence (Q15059 34-140 limits assumed): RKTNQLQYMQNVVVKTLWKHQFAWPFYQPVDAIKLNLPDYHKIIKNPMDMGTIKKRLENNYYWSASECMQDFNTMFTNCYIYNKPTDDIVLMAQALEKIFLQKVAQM
BRD3 (BD1, 2), sequence (Q15059 24-416 limits assumed): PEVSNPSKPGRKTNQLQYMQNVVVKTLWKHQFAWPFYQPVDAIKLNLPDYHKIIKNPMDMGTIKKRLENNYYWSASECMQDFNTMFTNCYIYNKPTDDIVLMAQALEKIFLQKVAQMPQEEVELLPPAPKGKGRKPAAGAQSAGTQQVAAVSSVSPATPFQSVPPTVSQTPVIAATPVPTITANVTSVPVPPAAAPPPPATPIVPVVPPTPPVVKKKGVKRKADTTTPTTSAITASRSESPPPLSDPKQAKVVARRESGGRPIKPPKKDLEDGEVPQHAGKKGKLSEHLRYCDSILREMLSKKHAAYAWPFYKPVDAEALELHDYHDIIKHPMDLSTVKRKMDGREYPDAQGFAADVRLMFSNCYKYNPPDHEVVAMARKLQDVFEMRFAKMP

Compound | Kd (BRD4 (BD1, 2); tandem bromodomains) | IC50 (MV4-11 cells) | IC50 [1] | Kd (P300) | Kd (CBP) | further results
Cc1cc(-c2ccc3nc(-c4cnn(CC(C)(C)O)c4)nc(N4CCOC[C@@H]4c4ccccc4)c3c2)cn(C)c1=O [Cpd. 1, (S)-5-(2-(1-(2-hydroxy-2-methylpropyl)-1H-pyrazol-4-yl)-4-(3-phenylmorpholino)quinazolin-6-yl)-1,3-dimethylpyridin-2(1H)-one] | < 100 nM | 100 to 500 nM | < 100 nM | < 100 nM | < 100 nM | Kd (BRD2 (BD2)): < 100 nM; Kd (BRD3 (BD1)): < 100 nM; Kd (BRDT (BD2)): < 100 nM; Kd (BRD4 (BD1, 2); Table 3): < 100 nM; Kd (BRDT (BD1)): < 100 nM; Kd (BRD2 (BD1, 2)): < 100 nM; Kd (BRD4 (BD2)): < 100 nM; Kd (BRDT (BD1, 2)): < 100 nM; Kd (BRD3 (BD2)): < 100 nM; Kd (BRD4 (BD1)): < 100 nM; Kd (BRD2 (BD1)): < 100 nM; Kd (BRD3 (BD1, 2)): < 100 nM; IC50 ([2]; Kasumi 1, 72 h): < 100 nM
Cn1cc(-c2ccc3nc(-c4cnn(CC(C)(C)O)c4)nc(N4CCOC[C@@H]4c4ccccc4)c3c2)c2cc[nH]c2c1=O [Cpd. 2, (S)-4-(2-(1-(2-hydroxy-2-methylpropyl)-1H-pyrazol-4-yl)-4-(3-phenylmorpholino)quinazolin-6-yl)-6-methyl-1,6-dihydro-7H-pyrrolo[2,3-c]pyridin-7-one] | < 100 nM | < 100 nM | < 100 nM | < 100 nM | < 100 nM | Kd (BRD2 (BD2)): < 100 nM; Kd (BRD3 (BD1)): < 100 nM; Kd (BRDT (BD2)): < 100 nM; Kd (BRD4 (BD1, 2); Table 3): < 100 nM; Kd (BRDT (BD1)): < 100 nM; Kd (BRD2 (BD1, 2)): < 100 nM; Kd (BRD4 (BD2)): < 100 nM; Kd (BRDT (BD1, 2)): < 100 nM; Kd (BRD3 (BD2)): < 100 nM; Kd (BRD4 (BD1)): < 100 nM; Kd (BRD2 (BD1)): < 100 nM; Kd (BRD3 (BD1, 2)): < 100 nM; IC50 [2, 3]: < 100 nM
Cc1cc(-c2ccc3nc(-c4cnn(CC(C)(C)O)c4)nc(N4CCOC[C@@H]4C4CC4)c3c2)cn(C)c1=O [Cpd. 3, (S)-5-(4-(3-cyclopropylmorpholino)-2-(1-(2-hydroxy-2-methylpropyl)-1H-pyrazol-4-yl)quinazolin-6-yl)-1,3-dimethylpyridin-2(1H)-one] | < 100 nM | 500 to 5000 nM | 100 to 500 nM | 100 to 500 nM | 100 to 500 nM | 
Cn1cc(-c2ccc3nc(-c4cnn(CC(C)(C)O)c4)nc(N4CCOC[C@@H]4C4CC4)c3c2)c2cc[nH]c2c1=O [Cpd. 4, (S)-4-(4-(3-cyclopropylmorpholino)-2-(1-(2-hydroxy-2-methylpropyl)-1H-pyrazol-4-yl)quinazolin-6-yl)-6-methyl-1,6-dihydro-7H-pyrrolo[2,3-c]pyridin-7-one] | < 100 nM | < 100 nM | < 100 nM | < 100 nM | < 100 nM | 
Cn1cc(-c2ccc3nc(-c4cnn(CC(C)(C)O)c4)nc(N4CCOC[C@@H]4c4ccc(F)cc4)c3c2)c2cc[nH]c2c1=O [Cpd. 5, (S)-4-(4-(3-(4-fluorophenyl)morpholino)-2-(1-(2-hydroxy-2-methylpropyl)-1H-pyrazol-4-yl)quinazolin-6-yl)-6-methyl-1,6-dihydro-7H-pyrrolo[2,3-c]pyridin-7-one] | < 100 nM | 100 to 500 nM | < 100 nM | < 100 nM | < 100 nM | IC50 [2, 3]: < 100 nM
Cc1cc(-c2ccc3nc(-c4cnn(CC(C)(C)O)c4)nc(N4CCOC[C@@H]4c4ccc(F)cc4)c3c2)cn(C)c1=O [Cpd. 6, (S)-5-(4-(3-(4-fluorophenyl)morpholino)-2-(1-(2-hydroxy-2-methylpropyl)-1H-pyrazol-4-yl)quinazolin-6-yl)-1,3-dimethylpyridin-2(1H)-one] | < 100 nM | 100 to 500 nM | < 100 nM | < 100 nM | < 100 nM | IC50 [2, 3]: < 100 nM
Cc1cc(-c2ccc3nc(N4CCO[C@H](CO)C4)nc(N4CCOC[C@@H]4C4CCCCC4)c3c2)cn(C)c1=O [Cpd. 10, 5-(4-((S)-3-cyclohexylmorpholino)-2-((S)-2-(hydroxymethyl)morpholino)quinazolin-6-yl)-1,3-dimethylpyridin-2(1H)-one] |  |  |  | 100 to 500 nM | 100 to 500 nM | 
Cc1cc(-c2ccc3nc(N4CCO[C@H](CO)C4)nc(N4CCOC[C@@H]4c4ccccc4)c3c2)cn(C)c1=O [Cpd. 11, 5-(2-((S)-2-(hydroxymethyl)morpholino)-4-((S)-3-phenylmorpholino)quinazolin-6-yl)-1,3-dimethylpyridin-2(1H)-one] |  |  |  | < 100 nM | < 100 nM | 
Cc1cc(-c2ccc3nc(-c4cnn(CC(C)(C)O)c4)nc(N4CCOC[C@@H]4C4CCCCC4)c3c2)cn(C)c1=O [Cpd. 12, (S)-5-(4-(3-cyclohexylmorpholino)-2-(1-(2-hydroxy-2-methylpropyl)-1H-pyrazol-4-yl)quinazolin-6-yl)-1,3-dimethylpyridin-2(1H)-one] |  |  |  | 100 to 500 nM | 100 to 500 nM | 
Cn1cc(-c2ccc3nc(N4CCO[C@H](CO)C4)nc(N4CCOC[C@@H]4C4CCCCC4)c3c2)c2cc[nH]c2c1=O [Cpd. 13, 4-(4-((S)-3-cyclohexylmorpholino)-2-((S)-2-(hydroxymethyl)morpholino)quinazolin-6-yl)-6-methyl-1,6-dihydro-7H-pyrrolo[2,3-c]pyridin-7-one] |  |  |  | < 100 nM | < 100 nM | 
Cn1cc(-c2ccc3nc(-c4cnn(CC(C)(C)O)c4)nc(N4CCOC[C@@H]4C4CCCCC4)c3c2)c2cc[nH]c2c1=O [Cpd. 14, (S)-4-(4-(3-cyclohexylmorpholino)-2-(1-(2-hydroxy-2-methylpropyl)-1H-pyrazol-4-yl)quinazolin-6-yl)-6-methyl-1,6-dihydro-7H-pyrrolo[2,3-c]pyridin-7-one] |  |  |  | 100 to 500 nM | < 100 nM | 
Cn1cc(-c2ccc3nc(N4CCO[C@H](CO)C4)nc(N4CCOC[C@@H]4c4ccc(F)cc4)c3c2)c2cc[nH]c2c1=O [Cpd. 15, 4-(4-((S)-3-(4-fluorophenyl)morpholino)-2-((S)-2-(hydroxymethyl)morpholino)quinazolin-6-yl)-6-methyl-1,6-dihydro-7H-pyrrolo[2,3-c]pyridin-7-one] |  |  |  | < 100 nM | < 100 nM | 
